Values joined by “and” are separate entries in the source; they are usually repeats but may differ in a detail not shown here. Equal entries are not always repeated. “Also recorded” adds a separate entry of the source. Where two headings read alike, the source gives them in different places.
Legend:
[1] = reputed; EPO Publication No. 0184162; cited from earlier work
[2] = system: mouse T lymphocytes; experiment: T-cell proliferation assay (ionomycin plus PMA induced T-cell stimulation, tritiated thymidine uptake); assay type: cell-based, C57B1/6 mice; details: for immunosuppressive activity by the T-cell proliferation assay: qualitative statement
Experimental: The principle of this assay is to measure the proliferation of mouse T lymphocytes stimulated with the combination of ionomycin plus PMA. A positive sample in this assay will inhibit T-cell proliferation, as indicated by reduced tritiated thymidine uptake.
Cells were pelleted by centrifugation at 1500 rpm for 8 minutes. Contaminating red cells were removed by treating the pellet with ammonium chloride lysing buffer (GIBCO) for 2 minutes at 4° C. Cold medium was added and cells were again centrifuged at 1500 rpm for 8 minutes. T lymphocytes were then isolated by separation of the cell suspension on nylon wool columns as follows: Nylon wool columns were prepared by packing approximately 4 grams of washed and dried nylon wool into 20 ml plastic syringes. The columns were sterilized by autoclaving at 250° F. for 30 minutes. Nylon wool columns were wetted with warm (37° C.) culture medium and rinsed with the same medium. Washed spleen cells resuspended in warm medium were slowly applied to the nylon wool. The columns were then incubated in an upright position at 37° C. for 1 hour. Non-adherent T lymphocytes were eluted from the columns with warm culture medium and the cell suspensions were spun as above.
The cell suspension was immediately distributed into 96 well flat-bottom microculture plates (Costar) at 200 μl/well. […] The proliferation of T lymphocytes was assessed by measurement of tritiated thymidine incorporation. After 44 hours of culturing, the cells were pulse-labelled with 2 μCi/well of tritiated thymidine (NEN, Cambridge, Mass.). After another 4 hours of incubation, cultures were harvested on glass fiber filters using a multiple sample harvester. Radioactivity of filter discs corresponding to individual wells was measured by standard liquid scintillation counting methods (Betacounter). Mean counts per minute of replicate wells were calculated and the results expressed as percent inhibition of tritiated thymidine uptake (proliferation) as follows: [formula]

[3] = Solubility; assay type: physicochemical; details: methanol

SMILES | potency relative to cyclosporin [1] [times] | inhibition at 0.01 µg/mL ([2]; Mus musculus, T-lymphocyte, 48 h, read-out: inhibition of T-cell proliferation by standard) [%] | Solubility [3] | IC50 ([2]; Mus musculus, T-lymphocyte, 48 h, read-out: IC50 (inhibition of T-cell proliferation)) | inhibition at 0.00011 µg/mL ([2]; Mus musculus, T-lymphocyte, L-687,819 0.11 ng/ml, 48 h) [%] | inhibition at 0.00026 µg/mL ([2]; Mus musculus, T-lymphocyte, L-687,819 0.26 ng/ml, 48 h) [%] | inhibition at 0.00058 µg/mL ([2]; Mus musculus, T-lymphocyte, L-687,819 0.58 ng/ml, 48 h) [%] | inhibition at 0.0013 µg/mL ([2]; Mus musculus, T-lymphocyte, L-687,819 1.3 ng/ml, 48 h) [%] | inhibition at 0.0029 µg/mL ([2]; Mus musculus, T-lymphocyte, L-687,819 2.9 ng/ml, 48 h) [%] | inhibition at 0.0044 µg/mL ([2]; Mus musculus, T-lymphocyte, L-687,819 4.4 ng/ml, 48 h) [%] | inhibition at 0.0066 µg/mL ([2]; Mus musculus, T-lymphocyte, L-687,819 6.6 ng/ml, 48 h) [%] | inhibition at 0.01 µg/mL ([2]; Mus musculus, T-lymphocyte, L-687,819 10 ng/ml, 48 h, read-out: % Inhibition of T-cell proliferation) [%] | inhibition at 0.1 µg/mL ([2]; Mus musculus, T-lymphocyte, L-687,819 100 ng/ml, 48 h) [%] | Inhibition of proliferation on addition of recombinant human IL2 ([2]; addition of 50 units/ml recombinant human IL2) | immunosuppressive activity by the T-cell proliferation assay [2] | immunosuppressive activity by the T-cell proliferation assay ([2]; listed as minor component)
C=CC[C@@H]1/C=C(\C)C[C@H](C)C[C@H](OC)[C@H]2O[C@@](O)(C(=O)C(=O)N3CCCC[C@H]3C(=O)O[C@H](/C(C)=C/[C@@H]3CC[C@@H](O)[C@H](OC)C3)[C@H](C)[C@@H](O)CC1=O)[C@H](C)C[C@@H]2OC [FK-506, reference compound] | 100 | 99 | – | – | – | – | – | – | – | – | – | – | – | – | – | –
CO[C@H]1C[C@@H](C)C/C(C)=C/[C@@H](C)C(=O)C[C@H](O)[C@@H](C)[C@@H](/C(C)=C/[C@@H]2CC[C@@H](O)[C@H](O)C2)OC(=O)[C@@H]2CCCCN2C(=O)C(=O)[C@]2(O)O[C@H]1[C@@H](OC)C[C@H]2C [L-687,819] | – | – | Solubility in methanol | 0.007 µg/mL and 9.17 nM | 9.5 | 9.1 | 0 | 0 | 0 | 15.9 | 51.3 | 76.1 | 98.8 | reversed | positive immunosuppressive activity; also recorded: positive inhibition of T-cell activation | shown to possess immunosuppressive activity

From US5431896A, “Microbial immunoregulant” (Merck & Co., Inc., priority 1992, dated 1995)
